PubChem BioAssay (NCI)
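48-hour exposure; five concentrations; linearly interpolated endpoints. TGI marks complete inhibition of growth.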

Columns and labels:
Assay in all cases: inhibition of tumour cell growth, NCI panel, 48 h
786-0 renal = system: 786-0 renal
DU-145 prostate = system: DU-145 prostate
CAKI-1 renal = system: CAKI-1 renal
NCI-H226 lung = system: NCI-H226 lung
OVCAR-3 ovarian = system: OVCAR-3 ovarian
SF-295 CNS = system: SF-295 CNS
NCI-H522 lung = system: NCI-H522 lung
SNB-19 CNS = system: SNB-19 CNS
NCI-H460 lung = system: NCI-H460 lung
MALME-3M melanoma = system: MALME-3M melanoma
OVCAR-4 ovarian = system: OVCAR-4 ovarian
TK-10 renal = system: TK-10 renal
PC-3 prostate = system: PC-3 prostate
SN12C renal = system: SN12C renal
ACHN renal = system: ACHN renal
K-562 leukemia = system: K-562 leukemia
MDA-MB-231 breast = system: MDA-MB-231 breast
EKVX NSCLC = system: EKVX NSCLC
M14 melanoma = system: M14 melanoma
SK-MEL-5 melanoma = system: SK-MEL-5 melanoma
SK-MEL-28 melanoma = system: SK-MEL-28 melanoma
SK-MEL-2 melanoma = system: SK-MEL-2 melanoma
UACC-62 melanoma = system: UACC-62 melanoma
RXF 393 renal = system: RXF 393 renal
KM12 colon = system: KM12 colon
SW-620 colon = system: SW-620 colon
MCF7 breast = system: MCF7 breast
IGROV1 ovarian = system: IGROV1 ovarian
OVCAR-5 ovarian = system: OVCAR-5 ovarian
UO-31 renal = system: UO-31 renal
HT29 colon = system: HT29 colon
HOP-62 NSCLC = system: HOP-62 NSCLC
HS 578T breast = system: HS 578T breast
MOLT-4 leukemia = system: MOLT-4 leukemia
HCT-116 colon = system: HCT-116 colon
SF-539 CNS = system: SF-539 CNS
OVCAR-8 ovarian = system: OVCAR-8 ovarian
HCT-15 colon = system: HCT-15 colon
U251 CNS = system: U251 CNS
HOP-92 NSCLC = system: HOP-92 NSCLC
T-47D breast = system: T-47D breast
NCI/ADR-RES ovarian = system: NCI/ADR-RES ovarian
BT-549 breast = system: BT-549 breast
RPMI-8226 leukemia = system: RPMI-8226 leukemia
A549 NSCLC = system: A549 NSCLC
MDA-MB-435 = system: MDA-MB-435
SF-268 CNS = system: SF-268 CNS
SNB-75 CNS = system: SNB-75 CNS
HL-60(TB) leukemia = system: HL-60(TB) leukemia
SK-OV-3 ovarian = system: SK-OV-3 ovarian
COLO 205 colon = system: COLO 205 colon
NCI-H23 lung = system: NCI-H23 lung
UACC-257 melanoma = system: UACC-257 melanoma
A498 renal = system: A498 renal
SR leukemia = system: SR leukemia

COc1cc2cnc(-c3ccccc3)cc2cc1OC
TGI (786-0 renal): > 100 µM | TGI (DU-145 prostate): > 100 µM | TGI (CAKI-1 renal): 62.4 µM | TGI (NCI-H226 lung): 45.8 µM | TGI (OVCAR-3 ovarian): 85.6 µM | TGI (SF-295 CNS): 45.1 µM | TGI (NCI-H522 lung): 53 µM | TGI (SNB-19 CNS): > 100 µM | TGI (NCI-H460 lung): > 100 µM | TGI (MALME-3M melanoma): 60.4 µM | TGI (OVCAR-4 ovarian): 82 µM | TGI (TK-10 renal): 67.2 µM | TGI (PC-3 prostate): 77.5 µM | TGI (SN12C renal): 22.2 µM | TGI (ACHN renal): 73.4 µM | TGI (K-562 leukemia): 78.3 µM | TGI (MDA-MB-231 breast): 48.2 µM | TGI (EKVX NSCLC): 34.3 µM | TGI (M14 melanoma): > 100 µM | TGI (SK-MEL-5 melanoma): 27.7 µM | TGI (SK-MEL-28 melanoma): > 100 µM | TGI (SK-MEL-2 melanoma): 54.6 µM | TGI (UACC-62 melanoma): 23.4 µM | TGI (RXF 393 renal): > 100 µM | TGI (KM12 colon): 61.2 µM | TGI (SW-620 colon): > 100 µM | TGI (MCF7 breast): > 100 µM | TGI (IGROV1 ovarian): 49.5 µM | TGI (OVCAR-5 ovarian): > 100 µM | TGI (UO-31 renal): > 100 µM | TGI (HT29 colon): 45.5 µM | TGI (HOP-62 NSCLC): > 100 µM | TGI (HS 578T breast): 53.8 µM | TGI (MOLT-4 leukemia): 50.7 µM | TGI (HCT-116 colon): > 100 µM | TGI (SF-539 CNS): > 100 µM | TGI (OVCAR-8 ovarian): > 100 µM | TGI (HCT-15 colon): 46.5 µM | TGI (U251 CNS): 56.5 µM | TGI (HOP-92 NSCLC): 65.9 µM | TGI (T-47D breast): > 100 µM | TGI (NCI/ADR-RES ovarian): 73.6 µM | TGI (BT-549 breast): 68.6 µM | TGI (RPMI-8226 leukemia): 36 µM | TGI (A549 NSCLC): 85.3 µM | TGI (MDA-MB-435): 67.3 µM | TGI (SF-268 CNS): > 100 µM | TGI (SNB-75 CNS): > 100 µM | TGI (HL-60(TB) leukemia): 59.7 µM | TGI (SK-OV-3 ovarian): > 100 µM | TGI (COLO 205 colon): 58.5 µM | TGI (NCI-H23 lung): 56.7 µM | TGI (UACC-257 melanoma): 53.3 µM | TGI (A498 renal): 21.2 µM | TGI (SR leukemia): 45.8 µM
